The structures appear in SMILES notation. Where a name gives a salt, the structure may show the parent alone.

The text below walks through data of US20260013502A1, “METHOD FOR TERMINATING COVER CROP GROWTH” (SUMITOMO CHEMICAL COMPANY, LIMITED, priority 2022, published 2026).

One assay relates to radish (Tillage Radish). Kind of assay: Example 2: outdoor boom-sprayer foliar application to overwintered radish at bolting stage. It counts as in vivo, Raphanus sativus. The following applies: 20 g/ha epyrifenacil, EC 55 g/L, 0.5% Agri-Dex + 1% ammonium sulfate, 150 L/ha. How it is done: At the bolting stage of radish (Tillage Radish) seeded in the autumn and overwintered outdoors after soybean cultivation, epyrifenacil emulsifiable concentrate (55 g/L) was diluted with water containing 0.5% (v/v) adjuvant Agri-Dex+1% (w/v) ammonium sulfate, and the radish is subjected to foliar application using a boom sprayer at a spray volume of 150 L/ha to deliver 20 g/ha of epyrifenacil.

In assay [1] the test system is cereal rye (Secale cereale). Kind of assay: Example 7: greenhouse pot test, foliar application, termination of cereal rye growth. In kind it is in vivo. The following applies: for Dry matter weight: cereal rye above-ground parts at growth termination, average of 3 pots. On the procedure: A plastic pot was filled with soil, and cereal rye (Secale cereale) was seeded and grown in a greenhouse. Fifteen days after seeding, RoundupPowerMax was diluted with water, and then the cereal rye was subjected to foliar application from above using an automatic sprayer at a spray volume of 200 L/ha to achieve an application rate of 1,543 g/ha as glyphosate-potassium salt.
At the same time, the cereal rye was similarly seeded in another plastic pot and grown. Twenty-one days after seeding, epyrifenacil emulsifiable concentrate (55 g/L) or saflufenacil suspension (341 g/L) was diluted with water containing 1% (v/v) adjuvant Agri-Dex, and then the cereal rye was subjected to foliar application from above using an automatic sprayer at a spray volume of 200 L/ha to achieve an application rate of 25 g/ha.
After application with the herbicide, the cereal rye was grown in a greenhouse, and in case the growth was terminated, the above-ground parts were harvested at termination of the growth and the dry matter weight was measured. In this test, the growth was judged to be terminated when death of terminal and lateral buds was visually confirmed. The date at the beginning of the onset of effect, the growth termination date, and the dry matter weight at the time of growth termination are shown in Table 1. The onset of the effect was judged by visually observing the change in leaf color. Application with each herbicide was performed using three pots. The date at the beginning of the onset of effect and the growth termination date in the table were dates on which the onset of effect and growth termination were confirmed in all three pots, respectively. The dry matter weight was the average of the three pots.

The test system of assay [2] is cereal rye (Secale cereale). Kind of assay: Example 1: outdoor boom-sprayer foliar application to overwintered cereal rye at heading stage. In kind it is in vivo. The following applies: 40 g/ha epyrifenacil, EC 55 g/L, 0.5% MSO + 1% ammonium sulfate, 189 L/ha. On the procedure:
At the heading stage of cereal rye (Secale cereale) seeded in the autumn and overwintered outdoors after corn cultivation, epyrifenacil emulsifiable concentrate (55 g/L) was diluted with water containing 0.5% (v/v) adjuvant MSO+1% (w/v) ammonium sulfate, and the cereal rye is subjected to foliar application using a boom sprayer at a spray volume of 189 L/ha to deliver 40 g/ha of epyrifenacil.

The next assay concerns barley (Hordeum vulgare). Kind of assay: Example 3: outdoor boom-sprayer foliar application to overwintered barley at internode elongation stage. It counts as in vivo. The following applies: 30 g/ha epyrifenacil, EC 55 g/L, 0.5% Agri-Dex + 1% ammonium sulfate, 250 L/ha. How it is done:
At the internode elongation stage of barley (Hordeum vulgare) seeded in the autumn and overwintered outdoors in a corn cultivation trace, epyrifenacil emulsifiable concentrate (55 g/L) was diluted with water containing 0.5% (v/v) adjuvant Agri-Dex+1% (w/v) ammonium sulfate, and the barley is subjected to foliar application using a boom sprayer at a spray volume of 250 L/ha to deliver 30 g/ha of epyrifenacil.

Setting [3] is: epyrifenacil 25 g/ha, glyphosate-potassium salt 1,543 g/ha.
[4] abbreviates: cereal rye, greenhouse, death of terminal and lateral buds in all 3 pots, epyrifenacil/saflufenacil 25 g/ha applied 21 days after seeding, glyphosate-potassium salt 1,543 g/ha applied 15 days after seeding.

`CCOC(=O)COc1ncccc1Oc1cc(-n2c(=O)cc(C(F)(F)F)n(C)c2=O)c(F)cc1Cl` [Epyrifenacil, epyrifenacil]: in the assay with radish (Tillage Radish), the “Death of the radish observed” value is on record as 3 days after application. The Dry matter weight in assay [1] (setting [3]) is listed as 1,118 kg/ha; in assay [1] (epyrifenacil 25 g/ha, glyphosate-potassium salt 1,543 g/ha, listed as epyrifenacil), “biomass was greater”. In assay [1] (setting [4]), the Growth termination date is 24 Days Days after seeding. In addition, the “Death of the cereal rye observed” value in assay [2] worked out at 4 days after application. The “Death of the barley observed” value in the assay on barley (Hordeum vulgare) turned out to be 4 days after application.

Regarding `O=C(O)CNCP(=O)(O)O` [Glyphosate-potassium salt, glyphosate-potassium salt], in assay [1] (setting [3]), the Dry matter weight worked out at 595 kg/ha. Further, in assay [1] (cereal rye, greenhouse, death of terminal and lateral buds in all 3 pots, epyrifenacil 25 g/ha, glyphosate-potassium salt 1,543 g/ha), the “Growth termination date (days after application)” value was “seeding (9 days after application”. Also, the Growth termination date in assay [1] (setting [4]) was found to be 24 Days Days after seeding. Besides, in assay [1] (cereal rye, greenhouse, visual change in leaf color in all 3 pots, day relative to application, epyrifenacil/saflufenacil 25 g/ha applied 21 days after seeding, glyphosate-potassium salt 1,543 g/ha applied 15 days after seeding), the “Date at the beginning of the onset of effect” value is 5 Days after Days after application.
